Results reported in ChEMBL document CHEMBL1124789, “Angiotensin-converting enzyme inhibitors. 9. Novel [[N-(1-carboxy-3-phenylpropyl)amino]acyl]glycine derivatives with diuretic activity” (J Med Chem, 1990).
Blank lines part the entries; values can stand above or below the compound they belong to. Active and inactive are the calls of the source. The calls are words filed in the database; no cut-off is given here.

Experiments:
[1] = biological target: Angiotensin-converting enzyme (Homo sapiens) (UniProt P12821); assay: […] inhibitory activity against angiotensin I converting enzyme (ACE) in dog
Chain of Angiotensin-converting enzyme (Homo sapiens) (P12821 whole entry): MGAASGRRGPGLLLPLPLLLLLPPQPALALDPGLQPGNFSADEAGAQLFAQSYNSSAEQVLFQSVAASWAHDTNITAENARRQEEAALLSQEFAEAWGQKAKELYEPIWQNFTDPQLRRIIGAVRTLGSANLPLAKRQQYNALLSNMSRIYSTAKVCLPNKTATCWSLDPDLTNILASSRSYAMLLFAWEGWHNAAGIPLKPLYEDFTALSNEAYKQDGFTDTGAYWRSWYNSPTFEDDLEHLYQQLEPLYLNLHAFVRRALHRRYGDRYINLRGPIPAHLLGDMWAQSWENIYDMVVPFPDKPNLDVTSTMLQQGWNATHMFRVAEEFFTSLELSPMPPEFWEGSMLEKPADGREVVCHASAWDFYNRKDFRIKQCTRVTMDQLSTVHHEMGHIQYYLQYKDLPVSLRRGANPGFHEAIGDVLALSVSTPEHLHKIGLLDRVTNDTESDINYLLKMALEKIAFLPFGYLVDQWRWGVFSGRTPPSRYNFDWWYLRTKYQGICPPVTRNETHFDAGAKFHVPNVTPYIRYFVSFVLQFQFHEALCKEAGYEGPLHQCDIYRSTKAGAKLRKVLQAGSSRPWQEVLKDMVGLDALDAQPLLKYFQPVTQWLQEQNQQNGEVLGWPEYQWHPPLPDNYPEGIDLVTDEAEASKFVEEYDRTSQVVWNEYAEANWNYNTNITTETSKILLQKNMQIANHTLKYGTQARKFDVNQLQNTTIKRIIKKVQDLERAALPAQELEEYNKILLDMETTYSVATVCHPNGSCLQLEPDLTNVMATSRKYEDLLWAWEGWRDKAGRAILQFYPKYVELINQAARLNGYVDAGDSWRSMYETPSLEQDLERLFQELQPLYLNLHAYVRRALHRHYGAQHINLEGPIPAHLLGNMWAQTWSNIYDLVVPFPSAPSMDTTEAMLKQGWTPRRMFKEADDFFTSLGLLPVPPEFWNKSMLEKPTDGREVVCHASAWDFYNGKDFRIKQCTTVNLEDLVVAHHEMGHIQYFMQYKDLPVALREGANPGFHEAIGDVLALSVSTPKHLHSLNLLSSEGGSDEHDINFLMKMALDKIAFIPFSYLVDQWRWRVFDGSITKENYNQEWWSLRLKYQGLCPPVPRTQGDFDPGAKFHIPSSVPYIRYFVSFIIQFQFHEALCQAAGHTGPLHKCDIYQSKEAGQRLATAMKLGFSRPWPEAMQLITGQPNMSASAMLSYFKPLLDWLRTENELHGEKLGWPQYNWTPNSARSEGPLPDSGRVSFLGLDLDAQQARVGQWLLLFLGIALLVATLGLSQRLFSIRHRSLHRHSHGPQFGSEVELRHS

Canis familiaris [2] = assay: Diuretic activity (ip) was tested in dogs;ND- Natriuresis and diuresis; assay type: functional, organism-based; conditions: Canis lupus familiaris; Urine
Canis familiaris [3] = assay: Maximum percent decrease in blood pressure at the dose of 100 mg/kg ip; assay type: functional, Canis lupus familiaris; conditions: route intraperitoneal
[4] = biological target: T1, Angiotensin-converting enzyme (Rattus norvegicus) (UniProt P47820); assay: In vitro inhibitory activity against Angiotensin I converting enzyme at 100 uM concentration.
T1 sequence (whole entry): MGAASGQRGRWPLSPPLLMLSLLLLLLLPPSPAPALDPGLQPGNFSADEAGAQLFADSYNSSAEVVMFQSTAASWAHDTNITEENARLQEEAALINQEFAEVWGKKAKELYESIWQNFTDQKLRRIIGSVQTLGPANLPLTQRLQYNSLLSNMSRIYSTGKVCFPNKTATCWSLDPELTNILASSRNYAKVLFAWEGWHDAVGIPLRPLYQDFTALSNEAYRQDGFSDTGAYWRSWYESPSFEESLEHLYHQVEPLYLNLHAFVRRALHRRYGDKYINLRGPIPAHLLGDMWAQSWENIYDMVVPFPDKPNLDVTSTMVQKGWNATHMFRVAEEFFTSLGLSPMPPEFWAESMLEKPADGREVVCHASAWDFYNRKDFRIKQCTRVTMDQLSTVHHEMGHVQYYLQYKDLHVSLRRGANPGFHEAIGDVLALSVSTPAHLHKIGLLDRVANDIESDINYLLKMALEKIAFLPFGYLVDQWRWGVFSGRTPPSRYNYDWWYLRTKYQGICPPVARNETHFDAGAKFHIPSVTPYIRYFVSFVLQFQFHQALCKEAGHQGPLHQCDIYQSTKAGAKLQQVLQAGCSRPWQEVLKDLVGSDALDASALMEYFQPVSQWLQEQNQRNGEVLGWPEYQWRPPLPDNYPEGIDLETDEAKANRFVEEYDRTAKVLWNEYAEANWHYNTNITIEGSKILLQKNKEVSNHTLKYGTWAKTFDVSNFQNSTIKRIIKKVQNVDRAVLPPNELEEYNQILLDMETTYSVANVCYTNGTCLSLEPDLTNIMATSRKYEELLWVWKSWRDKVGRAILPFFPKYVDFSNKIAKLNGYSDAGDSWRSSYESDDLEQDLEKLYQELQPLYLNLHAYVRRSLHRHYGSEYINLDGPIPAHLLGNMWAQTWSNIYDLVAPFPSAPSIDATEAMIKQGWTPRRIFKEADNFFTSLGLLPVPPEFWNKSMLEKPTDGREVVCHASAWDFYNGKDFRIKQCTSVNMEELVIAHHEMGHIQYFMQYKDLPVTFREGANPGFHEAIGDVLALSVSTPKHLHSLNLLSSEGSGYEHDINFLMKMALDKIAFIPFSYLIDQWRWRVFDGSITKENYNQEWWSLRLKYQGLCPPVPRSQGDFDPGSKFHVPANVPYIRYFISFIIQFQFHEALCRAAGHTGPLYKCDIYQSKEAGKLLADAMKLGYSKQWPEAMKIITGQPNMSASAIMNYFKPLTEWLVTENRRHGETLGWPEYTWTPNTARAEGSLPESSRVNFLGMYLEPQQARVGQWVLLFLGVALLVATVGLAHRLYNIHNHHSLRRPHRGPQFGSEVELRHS

Rattus norvegicus = organism: Rattus norvegicus; assay: Duration of action of the compound; assay type: functional
[5] = biological target: T1, Angiotensin-converting enzyme (Rattus norvegicus); assay: Inhibition of Angiotensin I converting enzyme at the dose of 30 mg/kg (po) in rat; assay type: organism-based; design: dose 30 mg/kg; scale not given: the % may be the effect or the level left
Canis familiaris [6] = assay: Diuretic activity (po);NI- No Increase; assay type: functional, organism-based; conditions: Canis lupus familiaris; Urine
Canis familiaris [7] = assay: Diuretic activity (ip) was tested in dogs; NI-No Increase; assay type: functional, organism-based; conditions: Canis lupus familiaris; Urine
Canis familiaris [8] = assay: Maximum percent decrease in blood pressure at the dose of 1.0 mg/kg ip; assay type: functional, Canis lupus familiaris; conditions: route intraperitoneal

- ED50 [1]: > 100 mg/kg
SMILES: NS(=O)(=O)c1cc2c(cc1Cl)NCNS2(=O)=O [HYDROCHLOROTHIAZIDE]
- Activity (Canis familiaris [2]): Active
- Decrease (Canis familiaris [3]): 0%

- inhibition [4]: 40%
- Activity [5]: 50%
SMILES: CCOC(=O)[C@H](CCc1ccccc1)N[C@@H](C)C(=O)N(CC(=O)O)NC(=O)c1ccc(Cl)c(S(N)(=O)=O)c1.Cl
- Duration (Rattus norvegicus): < 1 h
- Activity (Canis familiaris [6]): No increase

SMILES: CCOC(=O)[C@H](CCc1ccccc1)N[C@@H](C)C(=O)N1CCC[C@H]1C(=O)O [ENALAPRIL]
- Activity (Canis familiaris [7]): inactive
- Decrease (Canis familiaris [8]): 38%
